Activity calls are given as the source filed them.
What was measured:
A549 = test: Cytotoxicity against human A549 cells assessed as decrease in cell viability up to 10 uM after 48 hrs by resazurin assay; format: functional, cell-based
Micrococcus luteus = test: Antibacterial activity against Micrococcus luteus NRRL B-287 up to 60 uM after 16 to 48 hrs; format: functional, organism-based
Saccharomyces cerevisiae = test: Antifungal activity against Saccharomyces cerevisiae ATCC 204508 up to 60 uM after 16 to 48 hrs; format: functional, organism-based
Staphylococcus aureus = test: Antibacterial activity against Staphylococcus aureus ATCC 6538 up to 60 uM after 16 to 48 hrs; format: functional, organism-based
Salmonella enterica = test: Antibacterial activity against Salmonella enterica ATCC 10708 up to 60 uM after 16 to 48 hrs; format: functional, organism-based
Escherichia coli = test: Antibacterial activity against Escherichia coli NRRL B-3708 up to 60 uM after 16 to 48 hrs; format: functional, organism-based

Measured: Activity

C[C@@H]1C[C@H](C)/C(O)=C2/C(=O)O[C@]34C[C@@](C)(O)[C@]5(C)O[C@]23[C@@H](C[C@H]4[C@@H]5O)C1=O
inactive: all assays above

C[C@@H]1C[C@@]23OC(=O)C4=C2O[C@]1(C)[C@@H](O)[C@@H]3[C@H]1O[C@H]1C(=O)[C@@](C)(O)C[C@H](C)C4=O
inactive: all assays above

C[C@H]1C[C@](C)(O)C(=O)[C@@H]2[C@@H](O)[C@H]3[C@H](O)[C@@]4(C)O[C@@]25/C(=C\1O)C(=O)O[C@@]35C[C@H]4CO
inactive: all assays above

C[C@H]1C[C@](C)(O)C(=O)[C@@H]2[C@@H](O)[C@H]3[C@H](O)[C@@]4(C)O[C@@]25/C(=C\1O)C(=O)O[C@@]35C[C@@]4(C)O
inactive: all assays above

C[C@@H]1C[C@H](C)/C(O)=C2/C(=O)O[C@]34C[C@@H](CO)[C@]5(C)O[C@]23[C@@H](C[C@H]4[C@@H]5O)C1=O
inactive: all assays above

C[C@@H]1C[C@]23OC(=O)/C4=C(\O)[C@@H](C)C[C@](C)(O)C(=O)[C@@H]5[C@@H](O)[C@H]2[C@H](O)[C@@]1(C)O[C@@]453
inactive: all assays above

C[C@H]1C[C@](C)(O)C(=O)C[C@@H]2/C(=C\1O)C(=O)O[C@]13C[C@H](C)[C@](C)(OC1=O)[C@@H](O)[C@H]23
inactive: all assays above

C[C@@H]1C[C@H](C)/C(O)=C2/C(=O)O[C@]34C[C@@H](C)[C@]5(C)O[C@]23[C@@H](C[C@H]4[C@@H]5O)C1=O
inactive: all assays above

C[C@@H]1C[C@H](C)/C(O)=C2/C(=O)O[C@]34C[C@@](C)(O)[C@]5(C)O[C@]23[C@@H](C[C@@]42O[C@H]25)C1=O
inactive: all assays above

CC(=O)C[C@H](C)C(=O)C1=C(O)[C@@]2(C[C@@H](C)C(C)=C[C@H]2/C=C/C(=O)O)OC1=O
inactive: all assays above

CO[C@H]1[C@H]2[C@H](O)[C@@]3(C)O[C@@]45/C(=C(/O)[C@@H](C)C[C@](C)(O)C(=O)[C@H]14)C(=O)O[C@@]25C[C@H]3C
inactive: all assays above

C[C@@H]1C[C@H](C)C(=O)C2=C3O[C@@]4(C)[C@H](CO)C[C@]3(OC2=O)[C@@H](CCC1=O)[C@@H]4O
inactive: all assays above
